Here are results for 17 molecules from patent US7253286B2, “Nitrogen-containing aromatic derivatives” (Eisai Co., Ltd, priority 2000, dated 2007).

pIC50: −log10 of the molar value.

The first experiment concerns Human Umbilical Vein Endothelial Cells (HUVECs). The experiment in a line: Inhibition against invasive tube formation by vascular endothelial cells in response to stimulation by angiogenic factor mixture. Also on record: key: the number of tubes formed in the absence of the test substance was designated as +++; scored on the 5-level scale of +++, ++, +, +/−, −; scored on the 5-level scale of +++, ++, +, +/−, −; scored on the 5-level scale of +++, ++, +, +/−, −; − was assigned if absolutely no tubes formed. The experiment is classed as cell-based. Particulars: test substance 0.01 μM; HUVEC on fibrin gel, EGF/FGF2/VEGF/HGF/TNF-α mixture, 6th day, MTT staining. How it is done: Inhibition Against Invasive Tube Formation by Vascular Endothelial Cells in Response to Stimulation by Angiogenic Factor Mixture
Human Umbilical Vein Endothelial Cells (HUVECs) were isolated according to a reported method (Shinseikagaku Jikken Koza [New Biochemistry Experiment Lectures], “Saibo Baiyo Gijutsu” [Cell Culturing Techniques], p.197–202), and were cultured in a 5% CO2 incubator (37° C.) using EGM-2 medium (purchased from Clonetics Corp.) until the cells reached confluency. After adding 0.4 ml of bovine fibrinogen (purchased from Sigma Co.) to the inner well of a Transwell culturing plate (purchased from Coster Inc.), it was hardened with 0.7 units/ml of thrombin (purchased from Sigma Co.). The HUVECs were recovered using trypsin-EDTA and then suspended in human endothelial serum free medium basal growth medium (hereinafter abbreviated as SFM, purchased from GIBCO BRL), and 0.4 ml of the cell suspension (1.4×10^5 cells) was seeded onto the hardened fibrin gel and cultured for approximately 4 hours in a 5% CO2 incubator (37° C.). After 4 hours, there was added to the outer chamber of the Transwell 1.5 ml of an SFM solution containing a mixture of angiogenic factors {10 ng/ml EGF (purchased from GIBCO BRL), 30 ng/ml FGF2 (purchased from GIBCO BRL), 75 ng/ml VEGF (purchased from Wako Pure Chemical Industries Co., Ltd.), 50 ng/ml HGF (purchased from R&D Co.) and 7.5 ng/ml TNF-α (purchased from Genzyme Corp.) [The concentrations of the angiogenic factors differed slightly according to the HUVEC lot.]} and a diluted test substance, and culturing was carried out in a 5% CO2 incubator (37° C.). On the 2nd and 4th days after adding the test substance, the medium was exchanged with 1.5 ml of freshly prepared SFM solution containing the angiogenic factor mixture and test substance. Upon aspirating off the culture supernatant in the inner well on the 6th day after the initial addition of the test substance, 0.4 ml of a 3.3 mg/ml MTT solution dissolved in PBS (purchased from Sigma Corp.) was added and culturing was performed for approximately 1 hour in a 5% CO2 incubator (37° C.). The number of tubes formed in the fibrin gel stained with MTT was scored based on microscope observation. Specifically, the number of tubes formed in the absence of the test substance was designated as +++, while − was assigned if absolutely no tubes formed. The number of tubes formed in the presence of the test substance was scored on the 5-level scale of +++, ++, +, +/−, − to evaluate the strength of inhibition of the test substance.
`CN1CCC(COc2cc3nccc(Oc4ccc(NC(=O)NC5CC5)c(Cl)c4)c3cc2C#N)CC1` [Example 422, N-(2-Chloro-4-((6-cyano-7-((1-methyl-4-piperidyl)methoxy)-4-quinolyl)oxy)phenyl)-N′-cyclopropylurea]: the “number of tubes formed in the fibrin gel (score) at 0.01 μM” value is “+”.

Staying with this experiment, now noted: test substance 0.1 μM; HUVEC on fibrin gel, EGF/FGF2/VEGF/HGF/TNF-α mixture, 6th day, MTT staining.
`CN1CCC(COc2cc3nccc(Oc4ccc(NC(=O)NC5CC5)c(Cl)c4)c3cc2C#N)CC1` [Example 422, N-(2-Chloro-4-((6-cyano-7-((1-methyl-4-piperidyl)methoxy)-4-quinolyl)oxy)phenyl)-N′-cyclopropylurea]: the “number of tubes formed in the fibrin gel (score) at 0.1 μM” value is “−”.

The same experiment, now with this note: test substance 1.0 μM; HUVEC on fibrin gel, EGF/FGF2/VEGF/HGF/TNF-α mixture, 6th day, MTT staining.
Turning to `CN1CCC(COc2cc3nccc(Oc4ccc(NC(=O)NC5CC5)c(Cl)c4)c3cc2C#N)CC1` [Example 422, N-(2-Chloro-4-((6-cyano-7-((1-methyl-4-piperidyl)methoxy)-4-quinolyl)oxy)phenyl)-N′-cyclopropylurea], the “number of tubes formed in the fibrin gel (score) at 1.0 μM” value is “−”.

In the next experiment the target is T1, VEGFR2 (Homo sapiens, UniProt P35968).
T1 construct: coding for the cytoplasmic domain, beginning with lysine 791 and including the termination codon; made in house; host or cells: Sf9 insect cells (baculovirus, pFastBacHis)
T1 sequence (P35968 786-1356 limits assumed): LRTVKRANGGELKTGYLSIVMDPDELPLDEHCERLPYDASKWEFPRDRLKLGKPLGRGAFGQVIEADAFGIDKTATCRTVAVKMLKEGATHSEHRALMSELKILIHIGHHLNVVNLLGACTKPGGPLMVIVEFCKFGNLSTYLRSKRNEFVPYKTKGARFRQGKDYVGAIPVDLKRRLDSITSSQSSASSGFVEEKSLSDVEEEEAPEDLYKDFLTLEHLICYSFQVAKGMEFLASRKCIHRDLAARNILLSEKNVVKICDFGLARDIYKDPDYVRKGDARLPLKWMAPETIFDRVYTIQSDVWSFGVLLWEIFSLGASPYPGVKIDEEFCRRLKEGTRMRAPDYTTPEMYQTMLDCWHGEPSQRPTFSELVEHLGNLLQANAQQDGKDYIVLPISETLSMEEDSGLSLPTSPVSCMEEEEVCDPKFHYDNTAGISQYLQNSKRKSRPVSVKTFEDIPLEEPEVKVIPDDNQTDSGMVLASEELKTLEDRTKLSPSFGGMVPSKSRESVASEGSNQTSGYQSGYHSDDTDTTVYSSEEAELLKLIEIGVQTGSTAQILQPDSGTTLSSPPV
Briefly: Inhibition against VEGFR2 kinase (receptor tyrosine kinase activity, HTRF method). The experiment is classed as biochemical. Particulars: His6-VEGFR2 cytoplasmic domain, biotin-poly(GT) substrate, ATP, 30° C. 10 minutes, read-out: IC50 (concentration required for 50% inhibition of VEGFR2 kinase activity). An excerpt:
Measurement of Inhibition Against Receptor Tyrosine Kinase Activity
This assay is used to determine inhibition of a test substance on tyrosine kinase activity. DNA coding for the cytoplasmic domain of VEGFR2 is obtained by total cDNA synthesis (Edwards M, International Biotechnology Lab 5(3), 19–25, 1987) or by cloning. Expression in an appropriate expression system can produce a polypeptide with tyrosine kinase activity. […] For VEGFR2 (Genbank Accession No. L04947), the 1.7 kb DNA fragment described by Terman et al. (Oncogene, 6(9), 1677–1683, 1991), coding for the cytoplasmic domain, beginning with lysine 791 and including the termination codon, was isolated from a human placental cDNA library (purchased from Clontech Laboratories, Inc.) and cloned in a Baculovirus expression vector (pFastBacHis, purchased from GIBCO BRL) The recombinant construct was transfected into insect cells (Spondoptea frugiperda9 (Sf9)) to prepare a recombinant Baculovirus. (Instructions for preparation and use of recombinant Baculovirus maybe found in standard texts, such as “Bac-To-Bac Baculovirus Expression System” (GIBCO BRL).) The cytoplasmic fragment starting from lysine 398 (FGFR1, Genbank Accession No. X52833), the cytoplasmic fragment starting from lysine 558 (PDGFRβ, Genbank Accession No. M21616) or the cytoplasmic fragment starting from lysine 974 (HGFR, Genbank Accession No. J02958) may be cloned and expressed by the same method for use in assays for other tyrosine kinases. EGFR was purchased from Sigma Co. (Product No. E-2645).
For expression of the VEGFR2 tyrosine kinase, Sf9 cells were infected with the VEGFR2 recombinant virus and collected after 48 hours. The collected cells were rinsed with ice-cooled phosphate buffered saline (PBS) and then resuspended using 20 ml of ice-cooled Lysis Buffer (50 mM Tris-HCl (pH 8.5), 5 mM 2-mercaptoethanol, 100 mM KCl, 1 mM phenylmethylsulfonyl fluoride, 1% (v/v) NP-40) per 1.5×10^8 cells. The suspension was centrifuged at 12,000 rpm for 30 minutes at 4° C. and the supernatant was obtained.
The supernatant was added to a Ni—NTA agarose column (3 ml, purchased from Qiagen) equilibrated with Buffer A {20 mM Tris-HCl (pH 8.5), 5 mM 2-mercaptoethanol, 500 mM KCl, 20 mM imidazole, 10% (v/v) glycerol}. The column was washed with 30 ml of Buffer A, and then with 6 ml of Buffer B {20 mM Tris-HCl (pH 8.5), 5 mM 2-mercaptoethanol, 1M KCl, 10% (v/v) glycerol}, and finally with 6 ml of Buffer A. After washing, it was eluted with 6 ml of Buffer C {20 mM Tris-HCl (pH8.5), 5mM2-mercaptoethanol, 100 mMKCl, 100 mM imidazole, 10% (v/v) glycerol}. The eluate was placed on a dialysis membrane (purchased from Spectrum Laboratories) and dialyzed with a dialysis buffer {20 mM Tris-HCl (pH 7.5), 10% (v/v) glycerol, 1 mM dithiothreitol, 0.1 mM Na3VO4, 0.1 mM EGTA}. After dialysis, it was supplied for SDS-electrophoresis, and the recombinant protein (His6-VEGFR2, cytoplasmic domain of VEGFR2 fused with 6 histidine residues at the N-terminus) detected at a molecular weight of approximately 100 kDa with Coumassie Brilliant Blue staining was assayed using BSA (bovine serum albumin, purchased from Sigma Co.) as the standard substance, and stored at −80° C. until use. Using the same method for the cytoplasmic domains of FGFR1, PDGFRβ and HGFR yielded respective recombinant proteins fused with 6 histidine residues at the N-termini (His6-FGFR1, His6-PDGFRβ or His6-HGFR).
The tyrosine kinase reaction was conducted as follows. […]
For orientation: In TR-FRET formats the signal depends on donor and acceptor labels being close together.
Consider `COCCOc1cc2nccc(Oc3ccc(NC(=O)Nc4ccc(F)cc4)cc3)c2cc1C#N` [Example 10, N-(4-(6-cyano-7-(2-methoxyethoxy)-4-quinolyl)oxyphenyl)-N′-(4-fluorophenyl)urea], for which the pIC50 is 8.31.
Regarding `COCCOc1cc2nccc(Oc3ccc(NC(=O)Nc4cccc(OC)c4)cc3)c2cc1C#N` [Example 14, N-(4-(6-Cyano-7-(2-methoxyethoxy)-4-quinolyl)oxyphenyl)-N′-(3-methoxyphenyl)urea], the pIC50 is 8.57.
Take `COCCOc1cc2nccc(Oc3ccc(NC(=O)Nc4cccc(O)c4)cc3)c2cc1C#N` [Example 15, N-(4-(6-Cyano-7-(2-methoxyethoxy)-4-quinolyl)oxyphenyl)-N′-(3-hydroxyphenyl)urea]: the pIC50 is 8.06.
Same read-out and setting: the same measure for `COCCOc1cc2nccc(Oc3ccc(NC(=O)Nc4cccc(S(C)(=O)=O)c4)cc3)c2cc1C#N` [Example 21, N-(4-(6-Cyano-7-(2-methoxyethoxy)-4-quinolyl)oxyphenyl)-N′-(3-(methylsulfonyl)phenyl)urea]: 8.37; for `CCN(CC)CCCOc1cc2nccc(Oc3ccc(NC(=O)Nc4ccc(F)cc4)cc3)c2cc1C#N` [Example 30, N-(4-(6-Cyano-7-(3-(diethylamino)propoxy)-4-quinolyloxy)phenyl)-N′-(4-fluorophenyl)urea]: 7.66.
For the molecule `N#Cc1cc2c(Oc3ccc(NC(=O)Nc4ccc(F)cc4)cc3)ccnc2cc1OCCCN1CCOCC1` [Example 31], the pIC50 was 7.77.
Same read-out and setting: the same measure for `COCCOc1cc2nccc(Oc3ccc(NC(=O)Nc4cccc(SC)c4)c(F)c3)c2cc1C#N` [Example 33, N-(4-(6-Cyano-7-(2-methoxyethoxy)-4-quinolyl)oxy-2-fluorophenyl)-N′-(3-(methylsulfanyl)phenyl)urea]: 8.16.
Consider `COCCOc1cc2nccc(Oc3ccc(NC(=O)Nc4cccc(S(C)(=O)=O)c4)c(F)c3)c2cc1C#N` [Example 34, N-(4-(6-Cyano-7-(2-methoxyethoxy)-4-quinolyl)oxy-2-fluorophenyl)-N′-(3-(methylsulfonyl)phenyl)urea], for which the pIC50 was 8.47.
Take `COc1cc2nccc(Oc3ccc(NC(=O)Nc4ccc(F)cc4F)cc3)c2cc1C#N` [Example 36, N-(4-(6-Cyano-7-methoxy-4-quinolyl)oxyphenyl)-N′-(2,4-difluorophenyl)urea]: the pIC50 is 7.85.
For `COc1cc2nccc(Oc3ccc(NC(=O)Nc4ccccc4)cc3)c2cc1C#N` [Example 37, N-[4-(6-cyano-7-methoxyquinolin-4-yloxy)phenyl]-N′-phenylurea], the pIC50 is 7.66.
`N#Cc1cc2c(Oc3ccc(NC(=O)Nc4ccc(F)cc4F)c(F)c3)ccnc2cc1OCCN1CCOCC1` [Example 54, N-(4-(6-Cyano-7-(2-(4-morpholino)ethoxy)-4-quinolyl)oxy-2-fluorophenyl)-N′-(2,4-difluorophenyl)urea]: the pIC50 was 7.82.
`COCCOc1cc2nccc(Oc3ccc(NC(=O)Nc4ccccc4)c(F)c3)c2cc1C#N` [Example 99, N-(4-(6-Cyano-7-(2-methoxyethoxy)-4-quinolyl)oxy-2-fluorophenyl)-N′-phenylurea]: the pIC50 is 8.07.
Regarding `CS(=O)(=O)NCCCOc1cc2nccc(Oc3ccc(NC(=O)Nc4ccc(F)cc4)c(F)c3)c2cc1C#N` [Example 111, N-(3-(6-Cyano-4-(3-fluoro-4-((4-fluoroanilino)carbonyl)aminophenoxy)-7-quinolyl)oxypropyl)methanesulfonamide], the pIC50 was 7.68.
`O=C(Nc1ccc(Oc2ncnc3[nH]c(-c4ccccc4)cc23)cc1)NC1CC1` [Example 173, 1-Cyclopropyl-3-[4-(6-phenyl-7H-pyrrolo[2,3-d]pyrimidin-4-yloxy)phenyl]urea]: the pIC50 was 6.45.
In the case of `CCNC(=O)n1ccc2cc(Oc3ncnc4[nH]c(-c5ccc(O)cc5)cc34)ccc21` [Example 178, 5-[6-(4-Hydroxyphenyl)-7H-pyrrolo[2,3-d]pyrimidin-4-yloxy]indole-1-carboxylic ethylamide], the pIC50 was 7.92.
Same read-out and setting: the same measure for `O=C1CCc2c(Oc3ccc(NC(=O)Nc4ccc(F)cc4)cc3)ccnc2N1` [Example 182, N-(4-Fluorophenyl)-N′-{4-[(7-oxo-5,6,7,8-tetrahydro[1,8]naphthyridin-4-yl)oxy]phenyl}urea]: 7.15.

The test system of another experiment is Human Umbilical Vein Endothelial Cells (HUVECs). The experiment in a line: Inhibition against sandwich tube formation by vascular endothelial cells in response to stimulation by VEGF. It is filed as cell-based. The conditions noted are these: HUVEC in collagen gel sandwich, stimulation by VEGF (25 ng/ml VEGF and 10 ng/ml EGF), 4th day, total tube length, read-out: IC50 (concentration required for 50% inhibition of tube formation). Summed up: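 HUVECs were sandwiched between collagen gel layers in serum-free medium with 25 ng/ml VEGF plus 10 ng/ml EGF, with test substance added above the gel at 37 °C. On day 4 tubes were MTT-stained and total tube length measured by image analysis. IC50 is the concentration halving tube length relative to no-compound wells.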
Take `CN1CCC(COc2cc3nccc(Oc4ccc(NC(=O)NC5CC5)c(Cl)c4)c3cc2C#N)CC1` [Example 422, N-(2-Chloro-4-((6-cyano-7-((1-methyl-4-piperidyl)methoxy)-4-quinolyl)oxy)phenyl)-N′-cyclopropylurea]: the pIC50 was 8.32.
